Measurements from patent US20220088004A1, “COMPOSITION FOR COMPETITIVE INHIBITION OF OREXIN RECEPTORS” (SUNTORY HOLDINGS LIMITED, priority 2019, published 2022).

Experiments:
[1] = system: orexin receptor; conditions: injection; amyloid precursor protein transgenic mice; cited from earlier work
[2] = biological target: Orexin 2 Receptor (Homo sapiens, UniProt O43614); conditions: 100 μg/mL test substance, 1 h pre-incubation, then 50 nM orexin-A for 24 hours; HEK293T cells; n=3; FIG. 1
Procedure: The orexin receptor antagonist activity of a test substance was measured using an accessory to Orexin 2 Receptor Reporter Assay Kit (Cayman Chemical Company).
In this evaluation system, cells that express orexin receptors at cell surfaces are used. Binding of the agonist (orexin) to the orexin receptor causes secretion of secreted alkaline phosphatase (SEAP). Secreted SEAP is reacted with an alkaline phosphatase substrate, and the enzyme activity of SEAP is measured using a luminometer. A substance having orexin receptor antagonist action reduces the enzyme activity.
(1) HEK293T cells were prepared at a concentration of 2.5×10^5 cells/mL using Dulbecco's modified Eagle medium (high glucose content) (Dulbecco's Modified Eagle's Medium-high glucose, with 4500 mg/L glucose, L-glutamine, sodium pyruvate, and sodium bicarbonate, liquid, sterile-filtered, suitable for cell culture) (Sigma-Aldrich) to which fetal bovine serum (FBS) was added to a final concentration of 10%.
(2) The medium containing HEK293T cells prepared in (1) was seeded at 200 μL per well in Orexin 2 Receptor Reverse Transfection Strip Plate.
(3) Incubation was performed at 5% CO2 and 37° C. for 16 hours. […]
(7) The enzyme (SEAP) activity of the supernatant was measured in accordance with a protocol attached to Orexin 2 Receptor Reporter Assay Kit (Cayman Chemical Company). […]

[3] = system: HEK293T cells; assay: WST-8 Cell Proliferation Assay (dehydrogenase activity, cell growth); assay type: cell-based; conditions: 100 μg/mL, HEK293T cells of Example 1; compared to positive and negative control; FIG. 2
Procedure: For the pyrroloquinoline quinone disodium salt-added group in Example 1, WST-8 Cell Proliferation Assay Kit (Cayman Chemical Company) was used to confirm the cell growth after addition of pyrroloquinoline quinone disodium salt. The measurement was performed by a method according to an attached protocol. The dehydrogenase activity is known to be in proportion to the number of live cells. The kit utilizes this principle and measures the dehydrogenase activity released in the medium from the cells.

[4] = system: orexin receptor; conditions: intake of suvorexant; cited from earlier work
[5] = system: orexin receptor; conditions: during glucose tolerance test; cited from earlier work

Sequence of Orexin 2 Receptor (O43614 whole entry): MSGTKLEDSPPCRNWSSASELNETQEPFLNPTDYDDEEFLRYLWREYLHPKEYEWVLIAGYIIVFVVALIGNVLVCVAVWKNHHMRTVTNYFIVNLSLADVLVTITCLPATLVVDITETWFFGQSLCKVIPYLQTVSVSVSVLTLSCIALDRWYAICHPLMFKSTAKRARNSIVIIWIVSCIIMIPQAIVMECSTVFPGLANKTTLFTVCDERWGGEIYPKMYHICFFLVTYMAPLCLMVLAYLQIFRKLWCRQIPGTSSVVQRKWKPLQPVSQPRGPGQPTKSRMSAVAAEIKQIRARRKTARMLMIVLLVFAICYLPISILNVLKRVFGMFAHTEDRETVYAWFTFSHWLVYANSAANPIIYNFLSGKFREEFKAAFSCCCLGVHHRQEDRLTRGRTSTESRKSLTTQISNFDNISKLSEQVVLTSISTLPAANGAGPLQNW

CNC(=O)[C@@H](c1ccccc1)N1CCc2cc(OC)c(OC)cc2[C@@H]1CCc1ccc(C(F)(F)F)cc1 [almorexant]
amyloid β level and amyloid plaque formation [1]: decrease in amyloid β level and in amyloid plaque formation

O=C(O)c1cc(C(=O)O)c2c(n1)C(=O)C(=O)c1cc(C(=O)O)[nH]c1-2.[Na].[Na] [pyrroloquinoline quinone disodium salt]
orexin receptor antagonist action (SEAP enzyme activity relative to negative control) [2]: orexin receptor antagonist action equivalent to that exerted by addition of 1 μM suvorexant | number of cells (dehydrogenase activity relative to negative control) [3]: did not show a decrease in the number of cells

Cc1ccc(-n2nccn2)c(C(=O)N2CCN(c3nc4cc(Cl)ccc4o3)CC[C@H]2C)c1 [suvorexant]
sleep latency, wake after sleep onset, total sleep duration, sleep efficiency [4]: decreased sleep latency and objective wake after sleep onset and have increased total sleep duration and sleep efficiency | rise in blood sugar levels [5]: suppressing the rise in blood sugar levels
